Results reported in PubChem BioAssay (NCI).
“And” between values parts separate entries of the source, which are not always exact repeats. Equal entries are not always repeated.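 Interpolation was linear, between the two tested concentrations surrounding the appropriate level; five concentrations were tested over 48 hours in 96-well plates. Abbreviation: GI50, concentration required for 50% inhibition of growth. TGI: concentration producing complete growth inhibition.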

Assays:
Assay in all cases: growth of human tumour cells (NCI), 48 h
A498 renal = test system: A498 renal
HOP-62 NSCLC = test system: HOP-62 NSCLC
HT29 colon = test system: HT29 colon
NCI-H522 lung = test system: NCI-H522 lung
OVCAR-5 ovarian = test system: OVCAR-5 ovarian
SK-MEL-2 melanoma = test system: SK-MEL-2 melanoma
SNB-19 CNS = test system: SNB-19 CNS
SNB-75 CNS = test system: SNB-75 CNS
TK-10 renal = test system: TK-10 renal
OVCAR-8 ovarian = test system: OVCAR-8 ovarian

Structure (SMILES)	TGI (A498 renal) [µM]	TGI (HOP-62 NSCLC) [µM]	TGI (HT29 colon) [µM]	TGI (NCI-H522 lung) [µM]	TGI (OVCAR-5 ovarian) [µM]	TGI (SK-MEL-2 melanoma) [µM]	TGI (SNB-19 CNS) [µM]	TGI (SNB-75 CNS) [µM]	TGI (TK-10 renal) [µM]	GI50 (HOP-62 NSCLC)	GI50 (HT29 colon) [µM]	GI50 (NCI-H522 lung) [µM]	GI50 (OVCAR-5 ovarian) [µM]	GI50 (OVCAR-8 ovarian)	TGI (OVCAR-8 ovarian) [µM]	GI50 (SK-MEL-2 melanoma) [µM]	GI50 (SNB-19 CNS) [µM]	GI50 (SNB-75 CNS) [µM]	GI50 (TK-10 renal) [µM]	GI50 (A498 renal) [µM]
NC(=O)c1ccccc1NC(=O)C(=O)C(C(=O)c1ccc2ccccc2c1)C1OC(=O)c2ccccc21 (stereo unspecified)	> 100	24.2	75.8	43.2	67.1	33.2	20.7	45.2	48.9											
COc1ccc(Nc2c3ccccc3nc3c2c2ccccc2n3C)cc1		> 100	> 100	> 100	> 100	> 100	> 100	> 100	> 100	> 100 µM	13.6	78.3	> 100	57.5 µM	> 100	57.6	> 100	> 100	13	
NC(=S)N/N=C(/CC(=O)c1ccc([N+](=O)[O-])cc1)C(=O)Nc1ncc([N+](=O)[O-])s1		> 100	> 100		> 100	> 100	> 100	> 100	> 100						> 100					
CC(=O)OC1(C#N)CC2OC1C1C2N1C(=O)c1ccccc1 (stereo unspecified)	> 100	> 100		> 100	> 100	> 100	> 100	> 100	> 100						> 100					
CC(=O)OC1C=CC2CCN3C(=O)c4cc5c(cc4[C@H]1C23)OCO5 (stereo partly specified)		> 100	> 100	> 100			> 100	> 100	> 100						> 100					
COC(=O)/C(C#N)=C\N1CCN(C(=O)c2ccco2)C1=S		46.8	55.1			8.39	> 100	> 100	13.2	22.3 µM	12.2			15.5 µM	56.2	2.94	54.9	15.5	3.63	
CC(=O)Nc1ccc2nncnc2c1	> 100	> 100	> 100	> 100	> 100	> 100	> 100	> 100	> 100											
CN(C)CCNC(=O)c1cccc2nc3ccc4ccccc4c3nc12	0.241	0.352	1.25		0.55	0.335	0.921	0.517	0.574						0.284					
CCCc1cc(=O)oc2c(C(=O)CC(C)C)c(O)c(CC=C(C)C)c(O)c12	17.9	> 50	> 50	> 50		49	> 50	41.8	> 50	17.6 µM	15.1	8.17		12 µM	> 50	9.71	14.5	10.7	12.2	4.04
C/C(=N\NC(=O)CC(=O)Nc1ccc(C)cc1)c1cc2ccccc2oc1=O		> 100	> 100	> 100		> 100	> 100	76.6	> 100						> 100					
CCC(=O)C1=C(OC(C)=O)C2Cc3c(n(C)c4ccccc34)C(C1)N2C (stereo unspecified)	> 100		> 100	30	> 100	> 100	> 100	> 100	> 100						41.6					
Cc1ccc(-n2c3c(c4c(CN5CCCCC5)c(O)ccc42)CCc2ccccc2C3=O)cc1	> 100	80.7		> 100	> 100	> 100	> 100		> 100	27.5 µM		> 100	> 100	46 µM	> 100	> 100	> 100		> 100	> 100
C/C(=N/O)C1CC=C(S(=O)(=O)c2ccccc2)C1 (stereo unspecified)		> 100	> 100	> 100	> 100	> 100	> 100	> 100	> 100						> 100					
Cc1ccc2nc3c(Cl)cc(=O)cc-3sc2c1			91.7	39				57.7	53.8						43.4					
COc1cc2cc3c4c(cc(OC)c(OC)c4c2cc1OC)CCN3C(=O)CCCC(=O)O	> 100	> 100	> 100	> 100	> 100	> 100	> 100		> 100											
N/C(=N\O)c1ncc(-c2ccc(C(F)(F)F)cc2)c(NC2CCCCCC2)n1	15.8	23.2	10.4	7.69	19.3		13.8	20.6	9.73	7.5 µM and 6.53 µM	3.24	1.92	4.51	4.6 µM and 2.19 µM	13.4		3.27	5.11	2.49	1.96
CN(C)c1cccc(-c2cc(=O)c3ccccc3[nH]2)c1		> 100	> 100	57.6			> 100		> 100						> 100					
COc1ccc(/C=C2\N=C(c3ccccc3)OC2=O)c(OCc2ccccc2)c1	68.5	45.2		67.2	> 100		94.3								72					
CC(C)(O)[C@@H]1CCC(C)([C@H]2[C@@H](O)CC3(C)C4CC(OC5OC(CO)C(O)C(O)C5O)C5C(C)(C)[C@@H](OC6OCC(O)C(O)C6O)CC[C@@]56C[C@@]46CC[C@]23C)O1 (stereo partly specified)			> 100	> 100	> 100	> 100	> 100	> 100	> 100						> 100					
CC(=O)CC(=O)CCCC(=O)Nc1ccc(Cl)cc1C	> 100		> 100	> 100	> 100	> 100	> 100		> 100						> 100					
Cc1cc2c3ccccc3n(C)c2c2c1C(=O)c1ccccc1C2=O	> 100	53.6	73.2	49.2		41.3	80.3	> 100	81.3						76.2					
